{
  "source": "patent US10206934B2",
  "about": "“Implants and methods for treating inflammation-mediated conditions of the eye” (Allergan, Inc., priority 2000, dated 2019)",
  "origin": "cited, not measured here",
  "details": "fold less potent; 25 mg equivalent to 1 mg dexamethasone",
  "data": [
    {"smiles": "C[C@]12CCC(=O)C=C1CC[C@@H]1[C@@H]2[C@@H](O)C[C@@]2(C)[C@H]1CC[C@]2(O)C(=O)CO", "note": "[hydrocortisone]", "values": [
      {"measurement": "Potency relative to dexamethasone", "result": "approximately twentyfivefold"}
    ]}
  ]
}
